Assay results published in patent US8536191B2 (priority 2010, dated 2013).
Where two headings read alike, the source gives them in different places.

Experiments:
[1] = Physical stability under mechanical stress (compression, grinding, milling), checked by X-ray powder diffraction; assay type: physicochemical
Description: The crystalline forms of nalbuphine HCl were identified by their powder X-ray diffraction (PXRD) peaks/pattern. PXRD analyses of crystalline Forms A, B, C, D, F, G, H, I, K and amorphous Form Z were performed using an Inel XRG-3000 diffractometer equipped with a CPS (Curved Position Sensitive) detector with a 2θ range of 120°. Real time data were collected using Cu—Kα radiation starting at approximately 4°2θ at a resolution of 0.03°2θ. The tube voltage and amperage were set to 40 kV and 30 mA, respectively. The monochromator slit was set at 5 mm by 160 μm. […] The sample was prepared for analysis by packing into a thin-walled glass capillary. The capillary was mounted onto a goniometer head that is motorized to permit spinning of the capillary during data acquisition. Instrument calibration was performed using a silicon reference standard.

[2] = Form conversion upon heating (VT-XRPD); assay type: physicochemical; conditions: before melting, HCl
Description: Variable-temperature X-ray powder diffraction (VT-XRPD) analysis was performed on a Shimadzu XRD-6000 X-ray powder diffractometer equipped with an Anton Paar HTK 1200 high temperature stage. The sample was packed in a ceramic holder and analyzed from 2.5 to 40°2θ at 3°/min (0.4 sec/0.02° step). The heating rate was 10° C./min. Cooling was done by shutting off the furnace. A silicon standard was analyzed to check the instrument alignment. Temperature calibration was performed using vanillin and sulfapyridine standards. Data were collected and analyzed using XRD-6100/7000 v. 5.0. In house software (Pattern Match, SSCI Inc., An Aptuit Company) was used to generate and edit the peak lists. The value of each peak position represents the value at the apex of the peak. In the tables which follow herein, the PXRD peak lists are presented for each solid form along with the conversion to ‘d’ value (assuming a mean Cu Kα wavelength of 1.5418 Å) and relative peak intensities scaled to 100. The relative intensity (“R.I.”) of each peak is shown, wherein Relative Intensity is the ratio of the height of each peak compared to the highest peak, which is designated as 100%.

[3] = Physical stability on drying at 60° C.; conditions: dried at 60° C.

In the case of Cl.Oc1ccc2c3c1O[C@H]1[C@@H](O)CC[C@@]4(O)[C@@H](C2)N(CC2CCC2)CC[C@]314 [Form A], the “form change under mechanical stress” value ([1]; compression or dry grinding) is reported as “converting to Form C”, the “effect of further grinding on crystallinity” value ([1]; further grinding, X-ray powder diffraction) is reported as “some loss of crystallinity and formed partially amorphous material” and the “form change under mechanical stress” value ([1]; wet grinding) is reported as “Form B”. The “form change at extremely high humidity” value (97% RH, hydrochloride) was “Form B (dihydrate)”.

With Cl.Oc1ccc2c3c1O[C@H]1[C@@H](O)CC[C@@]4(O)[C@@H](C2)N(CC2CCC2)CC[C@]314 [Form B, nalbuphine HCl] the “physical stability when milled” value ([1]; milled, X-ray powder diffraction) was “physically unstable when milled, losing its crystallinity”, the “temperature of conversion to Form F upon heating” value (shortened to “temperature of conversion”) [2] was “about 190 °C” and the “physical stability when dried” value [3] was “mostly converting to Form C (monohydrate)”.

For Cl.Oc1ccc2c3c1O[C@H]1[C@@H](O)CC[C@@]4(O)[C@@H](C2)N(CC2CCC2)CC[C@]314 [Form C, nalbuphine HCl], the “temperature of conversion” value [2] was 200 °C and the “form change at extremely high humidity” value (97% RH) was “converts to Form B (dihydrate)”.

In the case of Cl.Oc1ccc2c3c1O[C@H]1[C@@H](O)CC[C@@]4(O)[C@@H](C2)N(CC2CCC2)CC[C@]314 [Form D, nalbuphine HCl], the “temperature of conversion” value [2] is reported as “about 180 °C”.

With Cl.Oc1ccc2c3c1O[C@H]1[C@@H](O)CC[C@@]4(O)[C@@H](C2)N(CC2CCC2)CC[C@]314 [Form F, nalbuphine HCl] the “form change at extremely high humidity” value (85% RH) was “converts to Form B (dihydrate)”.
